In the supplement of paper PMC8149375:

How the values were obtained:
Conditions in all cases: treatment: drug + dasatinib (fixed dose, not stated); 5 days
A498 [1] = assay: AUC of dose-response viability curve, drug + dasatinib, normalised to DMSO (arbitrary (AUC of normalised viability)); higher = less growth inhibition
Procedure: (§1)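 Primary HTS combination arm: 8 RCC cell lines treated with 8 doses (up to 10 uM) of each library drug plus a fixed dose of dasatinib (dose not stated) for 5 days; viability read by CellTiter-Glo and normalised to DMSO. GI50 was fitted with XLfit, AUC is the area under the dose-response curve, and minimum viability is the lowest fraction of DMSO viability across doses.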

SN12C [2] = assay: as above
Procedure: as §1

ACHN [3] = assay: as above
Procedure: as §1

786-O [4] = assay: as above
Procedure: as §1

769-P [5] = assay: as above
Procedure: as §1

UO-31 [6] = assay: as above
Procedure: as §1

TK-10 [7] = assay: as above
Procedure: as §1

CAKI-1 [8] = assay: as above
Procedure: as §1

A498 [9] = assay: minimum viability across doses, drug + dasatinib, relative to DMSO (fraction); higher = less growth inhibition
Procedure: as §1

SN12C [10] = assay: as above
Procedure: as §1

ACHN [11] = assay: as above
Procedure: as §1

786-O [12] = assay: as above
Procedure: as §1

769-P [13] = assay: as above
Procedure: as §1

UO-31 [14] = assay: as above
Procedure: as §1

TK-10 [15] = assay: as above
Procedure: as §1

CAKI-1 [16] = assay: as above
Procedure: as §1

A498 [17] = assay: GI50 of drug in presence of dasatinib; higher = less potent
Procedure: as §1

SN12C [18] = assay: as above
Procedure: as §1

ACHN [19] = assay: as above
Procedure: as §1

786-O [20] = assay: as above
Procedure: as §1

769-P [21] = assay: as above
Procedure: as §1

UO-31 [22] = assay: as above
Procedure: as §1

TK-10 [23] = assay: as above
Procedure: as §1

CAKI-1 [24] = assay: as above
Procedure: as §1

Structure (SMILES)	GI50 of drug (ACHN [19])	GI50 of drug (786-O [20])	AUC of dose-response viability curve (A498 [1])	AUC of dose-response viability curve (SN12C [2])	AUC of dose-response viability curve (ACHN [3])	AUC of dose-response viability curve (786-O [4])	AUC of dose-response viability curve (769-P [5])	AUC of dose-response viability curve (UO-31 [6])	AUC of dose-response viability curve (TK-10 [7])	AUC of dose-response viability curve (CAKI-1 [8])	minimum viability across doses (A498 [9])	minimum viability across doses (SN12C [10])	minimum viability across doses (ACHN [11])	minimum viability across doses (786-O [12])	minimum viability across doses (769-P [13])	minimum viability across doses (UO-31 [14])	minimum viability across doses (TK-10 [15])	minimum viability across doses (CAKI-1 [16])	GI50 of drug (A498 [17])	GI50 of drug (SN12C [18])	GI50 of drug (769-P [21])	GI50 of drug (UO-31 [22])	GI50 of drug (TK-10 [23])	GI50 of drug (CAKI-1 [24])
CCOC(=O)C1=C(N)Oc2ccc(Br)cc2[C@H]1[C@H](C#N)C(=O)OCC [HA14-1] + Cc1nc(Nc2ncc(C(=O)Nc3c(C)cccc3Cl)s2)cc(N2CCN(CCO)CC2)n1 [dasatinib]	> 10000 nM	> 10000 nM	3.14	2.54	2.17	2.65	2.77	3.92	2.71	2.35	0.797	0.69	0.579	0.624	0.737	0.952	0.725	0.628	> 10000 nM	> 10000 nM	> 10000 nM	> 10000 nM	> 10000 nM	> 10000 nM
O=C(Nc1cc(C(F)(F)F)cc(C(F)(F)F)c1)c1cc(Cl)ccc1O [IMD 0354] + Cc1nc(Nc2ncc(C(=O)Nc3c(C)cccc3Cl)s2)cc(N2CCN(CCO)CC2)n1 [dasatinib]	220 nM	373 nM	2.92	1.97	1.29	1.62	1.9	4.26	2.03	1.85	0.0122	0.00339	0.00153	0.00625	0.00617	0.0139	0.07	0.0138	1700 nM	1340 nM	557 nM	2030 nM	759 nM	481 nM
CC(C)n1nc(-c2ccc3oc(N)nc3c2)c2c(N)ncnc21 [INK 128] + Cc1nc(Nc2ncc(C(=O)Nc3c(C)cccc3Cl)s2)cc(N2CCN(CCO)CC2)n1 [dasatinib]	3.03 nM	4.88 nM	1.19	0.931	0.554	0.59	0.95	0.741	0.838	0.693	0.0897	0.0733	0.0339	0.00403	0.0625	0.00639	0.0156	0.0244	33.8 nM	13.1 nM	14.7 nM	13.8 nM	9.96 nM	9.18 nM

Further lines, with some results ahead:

GI50 of drug (ACHN [19])	GI50 of drug (786-O [20])	Structure (SMILES)	AUC of dose-response viability curve (A498 [1])	AUC of dose-response viability curve (SN12C [2])	AUC of dose-response viability curve (ACHN [3])	AUC of dose-response viability curve (786-O [4])	AUC of dose-response viability curve (769-P [5])	AUC of dose-response viability curve (UO-31 [6])	AUC of dose-response viability curve (TK-10 [7])	AUC of dose-response viability curve (CAKI-1 [8])	minimum viability across doses (A498 [9])	minimum viability across doses (SN12C [10])	minimum viability across doses (ACHN [11])	minimum viability across doses (786-O [12])	minimum viability across doses (769-P [13])	minimum viability across doses (UO-31 [14])	minimum viability across doses (TK-10 [15])	minimum viability across doses (CAKI-1 [16])	GI50 of drug (A498 [17])	GI50 of drug (SN12C [18])	GI50 of drug (769-P [21])	GI50 of drug (UO-31 [22])	GI50 of drug (TK-10 [23])	GI50 of drug (CAKI-1 [24])
368 nM	434 nM	CN1CCN(C2CCN(C(=O)Nc3cc(Oc4ccc(NC(=O)C5(C(=O)Nc6ccc(F)cc6)CC5)c(F)c4)ccn3)CC2)CC1 [Golvatinib (E7050)] + Cc1nc(Nc2ncc(C(=O)Nc3c(C)cccc3Cl)s2)cc(N2CCN(CCO)CC2)n1 [dasatinib]	3.93	2.19	1.63	1.93	2.3	4.48	2.09	1.89	0.335	0.191	0.0563	0.0302	0.131	0.0151	0.154	0.0248	9520 nM	1620 nM	3670 nM	3090 nM	886 nM	541 nM
5.38 nM	99.7 nM	COc1ccc(S(=O)(=O)N(C(C)=O)c2ccccc2/C=C/c2cc[n+]([O-])cc2)cc1 [HMN-214] + Cc1nc(Nc2ncc(C(=O)Nc3c(C)cccc3Cl)s2)cc(N2CCN(CCO)CC2)n1 [dasatinib]	2.04	1.78	1.15	1.18	1.95	2.65	2.02	1.32	0.124	0.172	0.102	0.00332	0.0839	0.00841	0.297	0.121	387 nM	342 nM	278 nM	499 nM	609 nM	74.4 nM
14.7 nM	46.6 nM	CCS(=O)(=O)Nc1ccc2c(c1)/C(=C(/Nc1ccc(CN3CCCCC3)cc1)c1ccccc1)C(=O)N2 [Hesperadin] + Cc1nc(Nc2ncc(C(=O)Nc3c(C)cccc3Cl)s2)cc(N2CCN(CCO)CC2)n1 [dasatinib]	2.05	1.26	1.18	1.2	1.86	2.5	2.17	1.15	0.109	0.00226	0.00666	0.0121	0.0628	0.0118	0.0643	0.0323	441 nM	82.6 nM	327 nM	357 nM	713 nM	45.5 nM
> 10000 nM	> 10000 nM	CS(=O)(=O)O.Cc1ccc(NC(=O)c2ccc(CN3CCN(C)CC3)cc2)cc1Nc1nccc(-c2cccnc2)n1 [Imatinib Mesylate] + Cc1nc(Nc2ncc(C(=O)Nc3c(C)cccc3Cl)s2)cc(N2CCN(CCO)CC2)n1 [dasatinib]	3.53	2.49	2.48	2.69	2.34	3.49	2.85	2.36	0.945	0.688	0.595	0.584	0.562	0.683	0.666	0.603	> 10000 nM	> 10000 nM	> 10000 nM	> 10000 nM	> 10000 nM	> 10000 nM
